Data: paper PMC6070925, “Genome Mining of Non-Conventional Yeasts: Search and Analysis of MAL Clusters and Proteins” (Genes, 2018)

Experiments:
Experiment in all cases: glucose release, recombinant E. coli extract
Type in all cases: biochemical
Conditions in all cases: 100 mM substrate, K-phosphate pH 6.5, 0.1 mM EDTA, 30 °C
MAL9 (Ss MAL9) = target: T1, MAL9 (Ss MAL9) (Scheffersomyces stipitis, UniProt A3GIC0)
T1 construct: gene PCR-cloned from genomic DNA into pURI3-Cter, expressed in E. coli BL21 (DE3), crude cell extract
T1 sequence (A3GIC0 1-573): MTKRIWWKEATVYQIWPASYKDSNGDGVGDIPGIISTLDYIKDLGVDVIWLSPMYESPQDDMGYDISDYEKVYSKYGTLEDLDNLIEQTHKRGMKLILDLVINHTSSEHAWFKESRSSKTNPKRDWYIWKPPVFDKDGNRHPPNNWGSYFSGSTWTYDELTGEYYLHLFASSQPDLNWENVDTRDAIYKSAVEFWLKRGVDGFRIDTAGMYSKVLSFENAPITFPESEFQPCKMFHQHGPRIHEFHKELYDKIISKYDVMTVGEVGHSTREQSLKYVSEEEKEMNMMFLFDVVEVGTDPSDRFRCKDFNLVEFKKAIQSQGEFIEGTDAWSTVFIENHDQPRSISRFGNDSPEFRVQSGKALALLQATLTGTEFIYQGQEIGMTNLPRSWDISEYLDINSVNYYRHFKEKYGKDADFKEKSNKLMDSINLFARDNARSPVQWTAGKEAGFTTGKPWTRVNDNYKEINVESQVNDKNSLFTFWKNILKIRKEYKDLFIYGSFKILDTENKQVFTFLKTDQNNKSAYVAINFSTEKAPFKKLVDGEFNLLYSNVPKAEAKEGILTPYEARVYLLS

MAL8 (Ss MAL8) = target: T2, MAL8 (Ss MAL8) (Scheffersomyces stipitis, UniProt A3LXA2)
T2 construct: gene PCR-cloned from genomic DNA into pURI3-Cter, expressed in E. coli BL21 (DE3), crude cell extract
T2 sequence (A3LXA2 1-572): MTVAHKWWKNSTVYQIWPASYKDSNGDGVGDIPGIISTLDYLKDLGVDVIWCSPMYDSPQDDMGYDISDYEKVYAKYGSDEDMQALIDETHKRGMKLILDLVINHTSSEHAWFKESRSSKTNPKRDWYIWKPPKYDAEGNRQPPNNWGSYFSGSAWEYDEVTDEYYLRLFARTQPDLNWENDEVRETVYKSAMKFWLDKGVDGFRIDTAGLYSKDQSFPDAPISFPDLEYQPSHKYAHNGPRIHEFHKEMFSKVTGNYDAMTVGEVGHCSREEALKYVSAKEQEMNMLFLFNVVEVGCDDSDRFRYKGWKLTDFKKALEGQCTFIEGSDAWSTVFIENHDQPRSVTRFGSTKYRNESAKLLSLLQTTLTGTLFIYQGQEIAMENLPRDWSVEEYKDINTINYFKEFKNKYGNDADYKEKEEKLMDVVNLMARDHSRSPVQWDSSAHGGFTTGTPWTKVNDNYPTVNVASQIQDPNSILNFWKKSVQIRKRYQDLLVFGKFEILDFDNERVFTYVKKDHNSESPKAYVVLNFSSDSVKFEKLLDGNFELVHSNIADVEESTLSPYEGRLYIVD

MAL62 (Sc MAL62) [1] = target: T3, MAL62 (Sc MAL62) (Saccharomyces cerevisiae, UniProt P07265)
T3 construct: gene from plasmid pY6 cloned into pURI3-Cter, expressed in E. coli BL21 (DE3), crude cell extract
T3 sequence (P07265 whole entry): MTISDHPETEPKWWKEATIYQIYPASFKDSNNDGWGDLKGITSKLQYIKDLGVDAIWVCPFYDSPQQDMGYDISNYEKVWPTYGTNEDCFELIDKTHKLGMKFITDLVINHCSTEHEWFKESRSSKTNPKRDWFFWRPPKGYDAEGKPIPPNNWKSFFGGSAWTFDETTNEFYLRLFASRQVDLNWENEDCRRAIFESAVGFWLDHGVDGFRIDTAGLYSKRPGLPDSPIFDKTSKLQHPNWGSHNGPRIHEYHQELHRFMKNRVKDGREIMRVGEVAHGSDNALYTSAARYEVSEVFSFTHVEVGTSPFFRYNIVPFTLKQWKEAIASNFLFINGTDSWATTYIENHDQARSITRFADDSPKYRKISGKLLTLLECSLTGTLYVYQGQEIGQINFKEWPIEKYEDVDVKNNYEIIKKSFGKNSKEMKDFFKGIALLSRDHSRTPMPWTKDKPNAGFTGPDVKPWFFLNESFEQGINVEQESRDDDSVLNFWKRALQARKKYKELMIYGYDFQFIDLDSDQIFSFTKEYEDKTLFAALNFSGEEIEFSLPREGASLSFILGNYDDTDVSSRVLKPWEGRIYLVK

MAL7 (Ss MAL7) = target: T4, MAL7 (Ss MAL7) (Scheffersomyces stipitis, UniProt A3LUP5)
T4 construct: gene PCR-cloned from genomic DNA into pURI3-Cter, expressed in E. coli BL21 (DE3), crude cell extract
T4 sequence (A3LUP5 1-572): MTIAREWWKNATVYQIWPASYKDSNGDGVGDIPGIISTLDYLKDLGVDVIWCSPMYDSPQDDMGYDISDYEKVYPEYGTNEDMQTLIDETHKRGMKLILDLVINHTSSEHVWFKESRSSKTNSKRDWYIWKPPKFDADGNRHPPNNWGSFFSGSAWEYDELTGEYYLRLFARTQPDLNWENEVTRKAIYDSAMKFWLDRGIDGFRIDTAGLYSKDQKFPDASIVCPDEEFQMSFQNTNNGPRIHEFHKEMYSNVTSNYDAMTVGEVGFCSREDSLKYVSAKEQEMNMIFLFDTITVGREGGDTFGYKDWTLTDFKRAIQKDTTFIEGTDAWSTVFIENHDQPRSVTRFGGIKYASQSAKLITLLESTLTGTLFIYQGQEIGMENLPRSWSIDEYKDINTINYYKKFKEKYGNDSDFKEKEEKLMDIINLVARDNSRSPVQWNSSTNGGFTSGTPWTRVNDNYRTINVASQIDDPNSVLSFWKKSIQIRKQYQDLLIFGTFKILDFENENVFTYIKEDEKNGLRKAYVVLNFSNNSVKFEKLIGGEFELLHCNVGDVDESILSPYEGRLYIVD

MAL62 (Sc MAL62) [2] = target: T3, MAL62 (Sc MAL62); remark: listed apart in the source

Structure (SMILES) | specific activity relative to sucrose (MAL9 (Ss MAL9)) | specific activity relative to sucrose (MAL8 (Ss MAL8)) | specific activity relative to sucrose (MAL62 (Sc MAL62) [1]) | specific activity relative to sucrose (MAL7 (Ss MAL7)) | specific activity (MAL62 (Sc MAL62) [2])
OC[C@H]1O[C@H](O[C@H]2[C@H](O)[C@@H](O)C(O)O[C@@H]2CO)[C@H](O)[C@@H](O)[C@@H]1O (some centres unmarked) [maltose] | all these enzymes hydrolyzed not only maltose-like substrates (maltose, sucrose) | all these enzymes hydrolyzed not only maltose-like substrates (maltose, sucrose) | behaved as a typical maltase using only maltose-like substrates | all these enzymes hydrolyzed not only maltose-like substrates (maltose, sucrose) | 
OC[C@H]1O[C@@](CO)(O[C@H]2O[C@H](CO)[C@@H](O)[C@H](O)[C@H]2O)[C@@H](O)[C@@H]1O [sucrose] |  |  |  |  | behaved as a typical maltase using only maltose-like substrates
